Results on twelve compounds are retold here after PMC10694292, “Increased sinusoidal export of drug glucuronides is a compensative mechanism in liver cirrhosis of mice” (Frontiers in Pharmacology, 2023).

Values joined by “and” are separate entries in the source; they are usually repeats but may differ in a detail not shown here. Equal values may be shown once. Read-outs that look alike come from different tables or passages of the source. A value given as a limit tells only on which side of the number the result lay.

What is called Solubility is how much of the substance goes into solution per volume. One may read the pKa as the negative logarithm of the acid dissociation constant.

The nature of series [1]: Chronic CCl4 treatment (12 months): blood chemistry and bile acids. In kind it is in vivo, mice. On the procedure: Male C57 Black 6/N 8–10-week-old mice were used (Janvier Labs, France). The mice were housed under standard environmental conditions with ad libitum feeding on a normal rodent diet (Ssniff, Soest, Germany) and with free access to water. To induce chronic liver damage, the mice were treated repeatedly with carbon tetrachloride (CCl4, 1 G/kg intraperitoneal) twice per week for 12 months ([Ghallab et al., 2019b]; [Holland et al., 2022]). The control mice received the vehicle only (olive oil, application volume 4 mL/kg intraperitoneal). On day 6, after the last CCl4/oil injection, blood as well as liver tissue samples were collected, as previously described ([Ghallab et al., 2016]). All experiments were approved by the local animal protection authorities (application number: 84-02.04.2017. A177).
ALT, AST, and ALP activities as well as albumin concentrations of plasma samples were measured with a 1:1 dilution in PBS using a Piccolo Xpress® chemistry analyzer and General Chemistry 13 panels (Hitado, Möhnesee, Germany).
Plasma concentrations of bile acids were analyzed using negative electrospray (ESI) liquid chromatography-tandem mass spectrometry (LC-MS/MS), as previously described ([Ghallab et al., 2022]).

For series [2] the following is noted: human, cited from earlier work.
The conditions of series [3]: humans, cited from earlier work; for Recovered from urine: after a single oral dose, ref Knauf and Mutschler, 1998, FDA.
Series [4] can be described thus: Drug cocktail i.v. in mice: 2 h bile, fraction of dose excreted. The following applies: for Mean fraction of dose excreted to bile: mice, 2 h after drug administration.
For series [5] the following is noted: cited from earlier work.
For series [6] the following is noted: human, cited from earlier work. The source holds these as a separate data set.
For series [7] the following is noted: cited from earlier work. The source holds these as a separate data set.
Series [8] is described as follows: Drug cocktail i.v. in mice: 24 h urine, fraction of dose excreted. The following applies: for Mean fraction of dose excreted to urine: mice, after drug cocktail administration; for Fraction of dose in urine (24 h), cirrhotic vs control mice: i.v. drug cocktail.
For series [9] the following is noted: rat, cited from earlier work.
For series [10] the following is noted: mouse, in vivo.
Series [11] can be described thus: Drug cocktail i.v. in CCl4-cirrhotic and control mice: plasma concentrations and AUC. The following applies: for Measured plasma concentrations in cirrhotic mice vs PBPK-predicted concentrations: 15-120 min after cocktail, prediction with CYP activity at 11%; for Phase I metabolite in blood (formation), cirrhotic vs control, experimental data: i.v. drug cocktail.
The conditions of series [12]: cited from earlier work. This is another data set of the same source.
The conditions of series [13]: cited from earlier work. The source holds these as a separate data set.
Where [14] appears, read: DrugBank, predicted AlogPS, ref Wishart et al., 2017.
[15] abbreviates: DrugBank, predicted ChemAxon, ref Wishart et al., 2017.
The mark [16] stands for this setting: optimized (mouse), ref Schenk et al., 2017.
The mark [17] stands for this setting: experimental, ref Vree and Verwey-van Wissen.
[18] abbreviates: DrugBank, experimental, ref Wishart et al., 2017.
Setting [19] is: experimental (morphine: logP uncharged), ref Avdeef, 1996.
The mark [20] stands for this setting: optimized, ref Krauss et al., 2017.
Where [21] appears, read: predicted ACD, ref Nguyen et al., 2016.
Setting [22] is: predicted, ref Wishart et al., 2017.

Regarding `ClC(Cl)(Cl)Cl` [CCl4, carbon tetrachloride], in series [1] (CCl4 1 g/kg i.p. twice per week, 12 months, vs oil), the “Plasma ALT” value is recorded as “increased”. Besides, in series [1] (CCl4 12 months vs oil), the ALP entry is given as “no significant changes”, the Albumin result was “no significant changes”, the “Plasma AST” value is “increased” and the “Serum bile acid levels” value is “increased”.
For the compound `CC(C)(C)NCC(O)COc1ccc(NC(=O)NC2CCCCC2)cc1` (stereo not drawn) [Talinolol, talinolol], the Fraction unbound in series [2] (measured, ref Obach et al., 2008) is 0.39; in series [6] (possibly optimized, ref Tubic et al., 2006), 0.45; in series [7] (mouse, optimized (talinolol: possibly optimized), ref Thiel et al., 2015), 0.65. In addition, in series [3] (after IV administration, ref Terhaag et al., 1989), the “Median fraction of dose found in bile” value is 9.3%. Also, in [3] (ref Trausch et al., 1995), the “Dose recovered unchanged from urine” value is recorded as “about 60%”. The “Amount in bile, cirrhotic vs control mice” value in series [4] (2 h bile) is “significantly increased”. Also, the “Mean fraction of dose excreted to bile” value in [4] is 0.5% and < 1%. Besides, the Lipophilicity is 2.91 in series [5] (setting [14]); 2.8 in series [5] (setting [15]); 2.3 in [5] (setting [16]); 1.08 in [5] (ref Gramatté et al., 1996). Besides, the octanol-water partition coefficient in series [5] (at pH=7.5, ref Gramatté et al., 1996) is given as 12. The Solubility in [5] (ref Gramatté et al., 1996) is 3.4 mM. For the same compound, the “pKa (Base)” value in series [5] (ref Matthaei et al., 2016) is 9.3. In series [5] (rounded values, ref DrugBank), the “logP from the DrugBank database as quoted in text” value is 2.9. Also, in series [8], the “Mean fraction of dose excreted to urine” value is 4% and < 5%.
With `Cn1c(=O)[nH]c2ncn(C)c2c1=O` [Paraxanthine, 1,7-Dimethylxanthine], the Fraction unbound was 0.56 in series [2] (measured, ref Lelo et al., 1986) and 0.85 in series [9] (measured, ref Bortolotti et al., 1985). Further, the Solubility in [5] (DrugBank, AlogPS prediction, ref Wishart et al., 2017) is 9130 µg/mL. Moreover, the results for the Lipophilicity in series [5] (setting [14]) and in series [5] (setting [15]) were -0.63 and 0.27, respectively. In series [5] (ref FooDB), the pKa result is “Neutral”. In addition, the “Mean fraction of dose excreted to urine” value in series [10] was determined as 2%.
Take `COc1ccc2c3c1O[C@H]1[C@@H](O)C=C[C@H]4[C@@H](C2)N(C)CC[C@@]341` [Codeine, codeine]: the Fraction unbound is 0.75 in series [2] (DrugBank, ref Wishart et al., 2017) and 0.44 in [2] (setting [17]). Also, the “Measured plasma concentrations of parent compound in cirrhotic mice” value in series [11] (accompanying increased glucuronides) is listed as “decreased”. The “Mean fraction of dose excreted to bile” value in [4] is given as “below 1%”. Also, the Lipophilicity in series [5] (setting [18]) is 1.39; in [5] (setting [19]), 1.19. For the same compound, the “Mean fraction of dose excreted to urine” value in series [8] is on record as 3%.
Consider `O=C(O)[C@H]1O[C@@H](OCc2ncc3n2-c2ccc(Cl)cc2C(c2ccccc2F)=NC3)[C@H](O)[C@@H](O)[C@@H]1O` [OH-MDZ-G, 1-hydroxymidazolam glucuronide], for which the “Measured plasma concentrations in cirrhotic mice vs PBPK-predicted concentrations” value in [11] was “much higher”. Besides, the “Mean fraction of dose excreted to bile” value in series [4] is 1.2%. In addition, the Lipophilicity in [5] (ref Vossen et al., 2007) is listed as 1.4. Besides, the “Fraction of dose in urine (24 h), cirrhotic vs control mice” value (“Fraction of dose … vs control mice” below) in series [8] is listed as “higher”.
With `Cc1cccc(Nc2ccncc2S(=O)(=O)NC(=O)NC(C)C)c1` [Torsemide, torsemide], the Fraction unbound is reported as less than 0.01 in series [2] (experimental, ref Knauf and Mutschler, 1998, Wishart et al., 2017); 0.061 in series [9] (experimental, ref Lee et al., 2005); 0.06 in [9] (experimental, ref Lee et al., 2005, listed as torsemide); 0.00125 in [6] (setting [20]). For the same compound, the Recovered from urine entry in series [3] (2017) was “about 20%”. Besides, the “Share excreted to urine” value in [3] (ref FDA, 2017) is on record as “about 20%”. In addition, the “Share of drug clearance by hepatic metabolism” value in [3] (ref FDA, 2017) is listed as “about 80%”. In addition, the Lipophilicity in [5] (setting [18]) was 3.356; in series [5] (setting [14]) it was 1.76; in series [5] (setting [15]), 1.86; in [5] (mouse, optimized, ref Thiel et al., 2015), 2.023; in series [5] (setting [16]), 2.3; in series [5] (ref Knauf and Mutschler, 1998), 0.57. Further, the Solubility in series [5] (setting [14]) was 55.96 µg/mL. The pKa in series [5] (ref FDA, 2017, Wishart et al.) is on record as 7.1; in series [5] (ref Knauf and Mutschler, 1998), 7. The “Dose found in bile” value in series [12] (rat, after 8h cannulation, ref Lee et al., 2005) is “about 2%”. Moreover, in series [12] (ref Lee 2005), the “Tissue-to-plasma ratio, liver” value is recorded as 0.336. Besides, in series [12] (ref Lee 2005), the “Tissue-to-plasma ratio, muscle” value was 0.069. Besides, in [10], the “Mean fraction of dose excreted to urine” value was 4%. For the same compound, the “Fraction of dose … vs control mice” value in [10] (iv) is on record as “increased significantly”.
Take `COc1ccc2c3c1O[C@H]1[C@@H](O[C@@H]4O[C@H](C(=O)O)[C@@H](O)[C@H](O)[C@H]4O)C=C[C@H]4[C@@H](C2)N(C)CC[C@@]341` [C6G, codeine-6-glucuronide]: the Fraction unbound in series [2] (setting [17]) is given as 0.44. In addition, the “Measured plasma concentrations in cirrhotic mice vs PBPK-predicted concentrations” value in [11] is reported as “much higher”. Moreover, in series [5] (setting [14]), the Lipophilicity was -0.23 and the Solubility was 4310 µg/mL. Besides, the Lipophilicity in series [5] (setting [15]) is -2.8. In [8], the “Fraction of dose … vs control mice” value was “higher” and the “Mean fraction of dose excreted to urine” value was 1%.
With `CC(C)NC(=O)NS(=O)(=O)c1cnccc1Nc1cccc(CO)c1` [OH-torsemide, hydroxy torsemide], the Recovered from urine entry in [3] (2017) was “about 10%”. Moreover, in series [11], the “Phase I metabolite in blood (formation), cirrhotic vs control, experimental data” value is reported as “decreased formation”. The “Mean fraction of dose excreted to bile” value in [4] came out at 0.8%. In addition, the Lipophilicity in [5] (setting [14]) is listed as 0.86; in series [5] (setting [15]), 0.49; in [5] (setting [16]), 0.75; in [5] (optimized, human, ref Krauss et al., 2017), 2.139. The Solubility in [5] (setting [14]) is 89.8 µg/mL. For the same compound, the Fraction unbound in [6] (setting [20]) is 0.00191. Further, the “Mean fraction of dose excreted to urine” value in [8] came to 11%.
In the case of `OCc1ncc2n1-c1ccc(Cl)cc1C(c1ccccc1F)=NC2` [OH-MDZ, 1-hydroxymidazolam], the Fraction unbound in series [2] (measured, ref Nguyen et al., 2016) is reported as 0.15; in series [7] (setting [16]), 0.01. Moreover, the Lipophilicity in series [5] (setting [14]) is 3.09; in series [5] (setting [15]), 2.48; in [5] (setting [21]) it was 2.5; in series [5] (ref Vossen et al., 2007), 2.6. For the same compound, the Solubility in series [5] (setting [14]) is 25.4 µg/mL. In addition, the “pKa, ampholyte, first value” in series [5] (setting [21]) is reported as 3.63; in series [5] (setting [22]), 4.99. Also, the “pKa, ampholyte, second value” in [5] (setting [21]) was 13.6; in series [5] (setting [22]), 13.95. For the same compound, the “Mean fraction of dose excreted to urine” value in series [8] is on record as “below 1%”.
With `CN1CC[C@]23c4c5ccc(O)c4O[C@H]2[C@@H](O)C=C[C@H]3[C@H]1C5` [Morphine, morphine], in series [8], the “Mean fraction of dose excreted to urine” value is 1%.
Consider `Cn1c(=O)c2c(ncn2C)n(C)c1=O` [Caffeine, caffeine], for which the “Fraction excreted unchanged to urine” value is 0.5-2% in [3] (ref Nehlig, 2018) and “about 5%” in series [13] (mice, ref Bonati et al., 1985). Further, the “Share of systemic clearance due to Cyp1a2” value in [13] (C57BL/6N mice, ref Buters et al., 1996) was 88%. The Fraction unbound in series [7] (mouse) is recorded as 0.70. Further, the “Mean fraction of dose excreted to urine” value in series [10] is on record as 1%.
Turning to `COc1ccc2c3c1O[C@H]1[C@@H](O)C=C[C@H]4[C@@H](C2)NCC[C@@]341` [Norcodeine, norcodeine], the Fraction unbound in [2] (setting [17]) is recorded as 0.765. Besides, in [11], the “Phase I metabolite in blood (formation), cirrhotic vs control, experimental data” value is recorded as “reduced formation”. In addition, the Lipophilicity is on record as 0.99 in series [5] (setting [14]), 0.96 in [5] (setting [15]) and 0.69 in series [5] (setting [19]). Also, the “pKa (Base)” value in [5] (ref Avdeef, 1996) was 9.22. In addition, the “Mean fraction of dose excreted to urine” value in [8] came to 3%.
